Data published in ChEMBL document CHEMBL4834406, “Isolation, Structure Elucidation, Semi-Synthesis, and Structural Modification of C19-Diterpenoid Alkaloids from Aconitum apetalum and Their Neuroprotective Activities” (J Nat Prod, 2021).
Calls of active or inactive are those of the source. No cut-off for these calls is given here.

Legend:
[1] = test system: SH-SY5Y; experiment: Cytotoxicity against H2O2 induced human neuroblastoma SH-SY5Y cells assessed as cell viability measured after 5 hrs by MTT assay; type: cell-based
[2] = test system: SH-SY5Y; experiment: Neuroprotective activity against H2O2-induced human SH-SY5Y cell damage assessed as protective rate at 50 uM pretreated for 1 hr followed by H2O2 addition measured after 4 hrs by MTT assay (reference value: 68.2 +/- 1.34%); type: functional; settings: time 5 hrs
[3] = test system: SH-SY5Y; experiment: Neuroprotective activity against H2O2-induced human SH-SY5Y cell apoptosis assessed as caspase 3 protein expression at 50 uM measured by Western blot analysis relative to control; type: functional, cell-based
[4] = test system: SH-SY5Y; experiment: Neuroprotective activity against H2O2-induced human SH-SY5Y cell death assessed as reversal of apoptosis at 50 uM pretreated for 1 hr followed by H2O2 addition measured after 4 hrs by Hoechst 33258 based fluorescence microscopy; type: functional; settings: time 5.0 hrs
[5] = test system: SH-SY5Y; experiment: Neuroprotective activity against H2O2-induced human SH-SY5Y cell apoptosis assessed as Bax protein expression at 50 uM measured by Western blot analysis relative to control; type: functional, cell-based
[6] = test system: SH-SY5Y; experiment: Neuroprotective activity against H2O2-induced human SH-SY5Y cell death assessed as viable cells at 50 uM measured by Annexin V/PI double staining base flow cytometry analysis (reference value: 76.67%); type: functional; settings: read-out: Activity
[7] = test system: SH-SY5Y; experiment: Neuroprotective activity against H2O2-induced human SH-SY5Y cell death assessed as late apoptotic cells at 50 uM measured by Annexin V/PI double staining base flow cytometry analysis (reference value: 7.78%); type: functional, cell-based
[8] = test system: SH-SY5Y; experiment: Neuroprotective activity against H2O2-induced human SH-SY5Y cell apoptosis assessed as Bcl-2 protein expression at 50 uM measured by Western blot analysis relative to control; type: functional, cell-based
[9] = test system: SH-SY5Y; experiment: Inhibition of ROS production in H2O2-induced human SH-SY5Y cells at 50 uM pretreated for 1 hr followed by H2O2 addition measured after 4 hrs by DCFH-DA based flow cytometry; type: functional, cell-based; settings: time 5.0 hrs
[10] = test system: SH-SY5Y; experiment: Neuroprotective activity against H2O2-induced human SH-SY5Y cell apoptosis assessed as PARP protein expression at 50 uM measured by Western blot analysis relative to control; type: functional, cell-based
[11] = test system: SH-SY5Y; experiment: Neuroprotective activity against H2O2-induced human SH-SY5Y cell death assessed as necrotic cells at 50 uM measured by Annexin V/PI double staining base flow cytometry analysis (reference value: 0.32%); type: functional, cell-based
[12] = test system: SH-SY5Y; experiment: Neuroprotective activity against H2O2-induced human SH-SY5Y cell death assessed as early apoptotic cells at 50 uM measured by Annexin V/PI double staining base flow cytometry analysis (reference value: 15.23%); type: functional, cell-based

For CCN1C[C@]2(COC(=O)c3ccccc3NC(=O)c3ccccc3NC(=O)C(C)Cl)CC[C@H](OC)C34C1C(C[C@@H]32)[C@@]1(O)C[C@H](OC)C2C[C@@H]4[C@@H]1[C@H]2O (stereo partly specified), the Activity [1] was “Non-Toxic” and the Activity [2] was 2.2%.

In the case of CCN1C[C@]2(COC(=O)c3ccccc3NC(=O)c3ccccc3NC(=O)C(C)(O)CC)CC[C@H](OC)C34C1C(C[C@@H]32)[C@@]1(O)C[C@H](OC)C2C[C@@H]4[C@@H]1[C@H]2OC(C)=O (stereo partly specified), the Activity [1] is reported as “Non-Toxic” and the Activity [2] is reported as 62.1%.

With CCN1C[C@]2(COC(=O)c3ccccc3NC(=O)c3ccccc3NC(=O)C(C)C)CC[C@H](OC)C34C1C(C[C@@H]32)[C@@]1(O)C[C@H](OC)C2C[C@@H]4[C@@H]1[C@H]2OC(=O)c1ccccc1NC(=O)c1ccccc1NC(=O)C(C)C the Activity [1] was “Non-Toxic” and the Activity [2] was 5.5%.

CCCCC(=O)Nc1ccccc1C(=O)Nc1ccccc1C(=O)OC[C@@]12CC[C@H](OC)C34C(C(C[C@@H]31)[C@@]1(O)C[C@H](OC)C3C[C@@H]4[C@@H]1[C@H]3O)N(CC)C2 was tested, and the Activity [1] was “Non-Toxic” and the Activity [2] was 11.7%.

With CCN1C[C@]2(COC(=O)c3ccccc3NC(=O)c3ccccc3NC(=O)C(C)(C)O)CC[C@H](OC)C34C1C(C[C@@H]32)[C@@]1(O)C[C@H](OC)C2C[C@@H]4[C@@H]1[C@H]2OC(=O)c1ccccc1NC(=O)c1ccccc1NC(=O)C(C)(C)O the Activity [1] was “Non-Toxic” and the Activity [2] was 12.4%.

CCO[C@]12C[C@H](OC)C3C[C@H]([C@@H]1[C@H]3O)C13C4C2C[C@@H]1[C@@](COC(=O)c1ccccc1NC(=O)c1ccccc1NC(=O)C(C)(C)O)(CC[C@@H]3OC)CN4CC was tested, and the Activity [1] was “Non-Toxic” and the Activity [2] was 58.6%.

CCN1C[C@]2(COC(=O)c3ccccc3NC(=O)c3ccccc3NC(=O)CCCCl)CC[C@H](OC)C34C1C(C[C@@H]32)[C@@]1(O)C[C@H](OC)C2C[C@@H]4[C@@H]1[C@H]2O was tested, and the Activity [1] was “Non-Toxic” and the Activity [2] was 15.6%.

For CCN1C[C@]2(COC(=O)c3ccccc3NC(=O)c3ccccc3NC(C)=O)CC[C@H](OC)C34C1C(C[C@@H]32)[C@@]1(O)C[C@H](OC)C2C[C@@H]4[C@@H]1[C@H]2OC(=O)c1ccccc1NC(=O)c1ccccc1NC(C)=O, the Activity [1] was “Non-Toxic” and the Activity [2] was 19.9%.

For CCCCCC(=O)Nc1ccccc1C(=O)Nc1ccccc1C(=O)OC[C@@]12CC[C@H](OC)C34C(C(C[C@@H]31)[C@@]1(O)C[C@H](OC)C3C[C@@H]4[C@@H]1[C@H]3O)N(CC)C2, the Activity [1] was “Non-Toxic” and the Activity [2] was 22.5%.

For CCN1C[C@]2(COC(=O)c3ccccc3NC(=O)c3ccccc3NC(=O)c3ccccc3)CC[C@H](OC)C34C1C(C[C@@H]32)[C@@]1(O)C[C@H](OC)C2C[C@@H]4[C@@H]1[C@H]2OC(=O)c1ccccc1NC(=O)c1ccccc1NC(=O)c1ccccc1, the Activity [1] was “Non-Toxic” and the Activity [2] was 10.8%.

With CCN1C[C@]2(COC(=O)c3ccccc3NC(=O)c3ccccc3NC(=O)C(Cl)(Cl)Cl)CC[C@H](OC)C34C1C(C[C@@H]32)[C@@]1(O)C[C@H](OC)C2C[C@@H]4[C@@H]1[C@H]2O the Activity [1] was “Non-Toxic” and the Activity [2] was 14.5%.

In the case of CCN1C[C@]2(COC(=O)c3ccccc3NC(=O)c3ccccc3NC(=O)C(C)(C)O)CC[C@H](OC)C34C1C(C[C@@H]32)[C@@]1(OC(C)=O)C[C@H](OC)C2C[C@@H]4[C@@H]1[C@H]2OC(C)=O, the Activity [1] is reported as “Non-Toxic” and the Activity [2] is reported as 54.2%.

With CCN1C[C@]2(COC(=O)c3ccccc3NC(=O)c3ccccc3NC(=O)C(C)(C)O)CC[C@H](OC)C34C1C(C[C@@H]32)[C@@]1(O)C[C@H](OC)C2C[C@@H]4[C@@H]1[C@H]2OC(C)=O the Activity [1] was “Non-Toxic” and the Activity [2] was 48.6%.

CCCC(=O)Nc1ccccc1C(=O)Nc1ccccc1C(=O)OC[C@@]12CC[C@H](OC)C34C(C(C[C@@H]31)[C@@]1(O)C[C@H](OC)C3C[C@@H]4[C@@H]1[C@H]3OC(=O)c1ccccc1NC(=O)c1ccccc1NC(=O)CCC)N(CC)C2 was tested, and the Activity [1] was “Non-Toxic” and the Activity [2] was 21.3%.

With CCCCC(=O)Nc1ccccc1C(=O)Nc1ccccc1C(=O)OC[C@@]12CC[C@H](OC)C34C(C(C[C@@H]31)[C@@]1(O)C[C@H](OC)C3C[C@@H]4[C@@H]1[C@H]3OC(=O)c1ccccc1NC(=O)c1ccccc1NC(=O)CCCC)N(CC)C2 the Activity [1] was “Non-Toxic” and the Activity [2] was 33%.

CCN1C[C@]2(COC(=O)c3ccccc3NC(=O)c3ccccc3NC(=O)C(C)(C)O)CC[C@H](OC)C34C1C(C[C@@H]32)[C@@]1(O)C[C@H](OC)C2C[C@@H]4[C@@H]1[C@H]2O was tested, and the Activity [3] was “Active”, the Activity [4] was “Active” and the Activity [5] was “Active”. For the same compound, the viability at 50 µM [6] was 89.2%, the Activity [7] was “Active” and the Activity [1] was “Non-Toxic”. The Activity [2] was 77.4%, the Activity [8] was “Active” and the inhibition [9] was “Active”. The Activity [10] was “Active”, the Activity [11] was “Active” and the Activity [12] was “Active”.

With CCCCC(CC)C(=O)Nc1ccccc1C(=O)Nc1ccccc1C(=O)OC[C@@]12CC[C@H](OC)C34C(C(C[C@@H]31)[C@@]1(O)C[C@H](OC)C3C[C@@H]4[C@@H]1[C@H]3O)N(CC)C2 (stereo partly specified) the Activity [1] was “Non-Toxic” and the Activity [2] was 6.5%.

In the case of CCN1C[C@]2(COC(=O)c3ccccc3NC(=O)c3ccccc3NC(=O)CC(C)C)CC[C@H](OC)C34C1C(C[C@@H]32)[C@@]1(O)C[C@H](OC)C2C[C@@H]4[C@@H]1[C@H]2OC(=O)c1ccccc1NC(=O)c1ccccc1NC(=O)CC(C)C, the Activity [1] is reported as “Non-Toxic” and the Activity [2] is reported as 13%.
